Results reported in US20070059385A1, “Safe pharmaceutical composition for treating and preventing cancer and method of use” (priority 2005, published 2007).

Assay: Metabolism (organ and blood radioactivity) of [^3H]-HHT in P388 mice
Type: in vivo
Conditions: blood
Protocol: Animals: Adult DBA/2J male mice, 6 to 8 weeks old. All animals weighed approximately 25 g when used in experiments. Each member of which received identical dosed (i.p.) of HHT.
Tumor: P388 leukemic cells induced in mice by inoculation with L1210 or P388 leukemic cells ([…]).
After P388 induced in mice 5 days, 1 mg/kg of [^3H]-HHT (100 μC/mg) was injected to mice. Volumes were 0.01 ml/g body weight. […] The key data of HHT in metabolism process are determined counts per minute (CPM) of [^3H]-HHT in organs. CPM is determined by liquid scintillation counting (LSC). The methods of LSC combined with radioactive of [^3H]-HHT can be determined using a tracer of HHT in organs. After killed animals, organs and blood were obtained from P388 mice. Organs were weighted. 10 mg of organs were digested. 10 ml of scintillation solution (which containing […]) were added to digested solution and determined at LSC. Other processes are similar to the standard method.

With COC(=O)C[C@](O)(CCCC(C)(C)O)C(=O)O[C@@H]1C(OC)=C[C@]23CCCN2CCc2cc4c(cc2[C@H]13)OCO4 [[^3H]-HHT] as the compound, how does the “[^3H]-HHT in blood” value (1 h) read?
The value was 1820 CPM.

And the “[^3H]-HHT in blood” value (2 h)?
Its value is 1650 CPM.

What about the “[^3H]-HHT in blood” value (4 h) of the same compound?
Its value is 1100 CPM.

What about the “[^3H]-HHT in blood” value (8 h) of the same compound?
The value was 920 CPM.

What about the “[^3H]-HHT in blood” value (16 h) of the same compound?
The value was 428 CPM.

What about the “[^3H]-HHT in blood” value (24 h) of the same compound?
Its value is 150 CPM.
